Source: doi:10.1101/2020.06.11.145995v1 (biorxiv, 2020)
Read-outs that look alike come from different tables or passages of the source.

What was measured:
Assay in all cases: biochemical
BMPR2 = BMPR2 (Homo sapiens, UniProt Q13873)
ASK1 = ASK1 (Homo sapiens, UniProt Q99683)
FGFR3 = FGFR3 (Homo sapiens, UniProt P22607)
AMPK-alpha1 = AMPK-alpha1 (Homo sapiens, UniProt Q13131)
FYN = FYN (Homo sapiens, UniProt P06241)
MEK6 = MEK6 (Homo sapiens, UniProt P52564)
MAPKAPK5 = MAPKAPK5 (Homo sapiens, UniProt Q8IW41)
FER = FER (Homo sapiens, UniProt P16591)
FLT3(K663Q) = FLT3(K663Q) (Homo sapiens, UniProt P36888, K663Q)
MYO3A = MYO3A (Homo sapiens, UniProt Q8NEV4)
MYO3A, sequence (Q8NEV4 whole entry): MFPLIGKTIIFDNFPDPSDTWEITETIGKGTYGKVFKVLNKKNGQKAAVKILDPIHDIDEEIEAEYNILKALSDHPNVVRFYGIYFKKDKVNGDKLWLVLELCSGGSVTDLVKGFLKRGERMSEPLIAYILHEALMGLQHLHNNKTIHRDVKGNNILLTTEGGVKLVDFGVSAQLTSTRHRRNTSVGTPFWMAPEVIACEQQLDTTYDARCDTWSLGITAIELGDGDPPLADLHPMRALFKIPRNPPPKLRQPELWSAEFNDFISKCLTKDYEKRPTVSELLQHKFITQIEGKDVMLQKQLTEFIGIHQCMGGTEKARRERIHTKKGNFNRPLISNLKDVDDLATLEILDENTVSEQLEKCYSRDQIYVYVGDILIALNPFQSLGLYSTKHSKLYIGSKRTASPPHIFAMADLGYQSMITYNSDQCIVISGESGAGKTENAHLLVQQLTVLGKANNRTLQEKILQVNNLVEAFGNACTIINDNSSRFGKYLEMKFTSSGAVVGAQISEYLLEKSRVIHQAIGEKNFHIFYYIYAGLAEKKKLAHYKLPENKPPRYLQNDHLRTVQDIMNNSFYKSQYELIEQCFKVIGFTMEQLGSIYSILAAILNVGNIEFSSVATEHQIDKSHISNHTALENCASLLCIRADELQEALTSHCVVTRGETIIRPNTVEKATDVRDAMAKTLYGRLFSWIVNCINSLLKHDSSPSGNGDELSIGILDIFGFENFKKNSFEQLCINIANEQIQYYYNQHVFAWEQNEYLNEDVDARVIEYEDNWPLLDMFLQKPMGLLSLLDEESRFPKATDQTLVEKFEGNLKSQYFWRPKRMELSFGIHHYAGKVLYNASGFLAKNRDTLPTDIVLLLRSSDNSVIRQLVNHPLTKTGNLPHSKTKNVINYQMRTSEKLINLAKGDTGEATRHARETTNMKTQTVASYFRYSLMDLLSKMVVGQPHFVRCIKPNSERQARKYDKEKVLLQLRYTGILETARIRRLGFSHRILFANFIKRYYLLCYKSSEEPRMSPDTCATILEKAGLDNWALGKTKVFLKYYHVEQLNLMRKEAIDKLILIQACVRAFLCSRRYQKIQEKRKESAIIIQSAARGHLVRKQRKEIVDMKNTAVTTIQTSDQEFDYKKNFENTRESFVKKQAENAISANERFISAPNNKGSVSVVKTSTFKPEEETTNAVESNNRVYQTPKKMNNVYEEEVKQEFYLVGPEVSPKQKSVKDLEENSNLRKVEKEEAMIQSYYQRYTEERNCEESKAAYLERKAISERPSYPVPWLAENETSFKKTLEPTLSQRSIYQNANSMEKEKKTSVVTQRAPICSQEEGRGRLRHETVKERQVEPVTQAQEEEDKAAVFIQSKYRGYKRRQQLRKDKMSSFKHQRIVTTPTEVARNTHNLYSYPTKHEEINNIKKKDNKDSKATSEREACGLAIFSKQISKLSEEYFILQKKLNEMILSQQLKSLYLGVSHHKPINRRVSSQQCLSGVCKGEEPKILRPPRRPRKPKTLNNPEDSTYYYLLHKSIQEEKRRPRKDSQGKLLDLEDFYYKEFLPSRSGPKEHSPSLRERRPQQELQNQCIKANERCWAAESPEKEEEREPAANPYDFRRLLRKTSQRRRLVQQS

MAP3K3 = MAP3K3 (Homo sapiens, UniProt Q99759)
MST3 = MST3 (Homo sapiens, UniProt Q9Y6E0)
JNK1 = JNK1 (Homo sapiens, UniProt P45983)
MYLK2 = MYLK2 (Homo sapiens, UniProt Q9H1R3)
FLT1 = FLT1 (Homo sapiens, UniProt P17948)
ADCK4 = ADCK4 (Homo sapiens, UniProt Q96D53)
BRSK1 = BRSK1 (Homo sapiens, UniProt Q8TDC3)
MERTK = MERTK (Homo sapiens, UniProt Q12866)
CAMK1D = CAMK1D (Homo sapiens, UniProt Q8IU85)
CAMK1D, sequence (Q8IU85 whole entry): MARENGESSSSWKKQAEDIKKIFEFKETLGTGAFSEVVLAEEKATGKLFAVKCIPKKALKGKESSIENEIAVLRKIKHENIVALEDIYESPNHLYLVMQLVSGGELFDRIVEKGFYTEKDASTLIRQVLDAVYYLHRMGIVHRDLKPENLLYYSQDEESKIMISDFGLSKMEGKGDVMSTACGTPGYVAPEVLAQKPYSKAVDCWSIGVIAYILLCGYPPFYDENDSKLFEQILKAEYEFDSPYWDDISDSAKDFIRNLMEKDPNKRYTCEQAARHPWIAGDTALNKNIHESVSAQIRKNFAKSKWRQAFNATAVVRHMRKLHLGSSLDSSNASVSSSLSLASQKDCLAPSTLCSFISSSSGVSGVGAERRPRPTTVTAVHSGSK

EGFR = EGFR (Homo sapiens, UniProt P00533)
EGFR, sequence (P00533 whole entry): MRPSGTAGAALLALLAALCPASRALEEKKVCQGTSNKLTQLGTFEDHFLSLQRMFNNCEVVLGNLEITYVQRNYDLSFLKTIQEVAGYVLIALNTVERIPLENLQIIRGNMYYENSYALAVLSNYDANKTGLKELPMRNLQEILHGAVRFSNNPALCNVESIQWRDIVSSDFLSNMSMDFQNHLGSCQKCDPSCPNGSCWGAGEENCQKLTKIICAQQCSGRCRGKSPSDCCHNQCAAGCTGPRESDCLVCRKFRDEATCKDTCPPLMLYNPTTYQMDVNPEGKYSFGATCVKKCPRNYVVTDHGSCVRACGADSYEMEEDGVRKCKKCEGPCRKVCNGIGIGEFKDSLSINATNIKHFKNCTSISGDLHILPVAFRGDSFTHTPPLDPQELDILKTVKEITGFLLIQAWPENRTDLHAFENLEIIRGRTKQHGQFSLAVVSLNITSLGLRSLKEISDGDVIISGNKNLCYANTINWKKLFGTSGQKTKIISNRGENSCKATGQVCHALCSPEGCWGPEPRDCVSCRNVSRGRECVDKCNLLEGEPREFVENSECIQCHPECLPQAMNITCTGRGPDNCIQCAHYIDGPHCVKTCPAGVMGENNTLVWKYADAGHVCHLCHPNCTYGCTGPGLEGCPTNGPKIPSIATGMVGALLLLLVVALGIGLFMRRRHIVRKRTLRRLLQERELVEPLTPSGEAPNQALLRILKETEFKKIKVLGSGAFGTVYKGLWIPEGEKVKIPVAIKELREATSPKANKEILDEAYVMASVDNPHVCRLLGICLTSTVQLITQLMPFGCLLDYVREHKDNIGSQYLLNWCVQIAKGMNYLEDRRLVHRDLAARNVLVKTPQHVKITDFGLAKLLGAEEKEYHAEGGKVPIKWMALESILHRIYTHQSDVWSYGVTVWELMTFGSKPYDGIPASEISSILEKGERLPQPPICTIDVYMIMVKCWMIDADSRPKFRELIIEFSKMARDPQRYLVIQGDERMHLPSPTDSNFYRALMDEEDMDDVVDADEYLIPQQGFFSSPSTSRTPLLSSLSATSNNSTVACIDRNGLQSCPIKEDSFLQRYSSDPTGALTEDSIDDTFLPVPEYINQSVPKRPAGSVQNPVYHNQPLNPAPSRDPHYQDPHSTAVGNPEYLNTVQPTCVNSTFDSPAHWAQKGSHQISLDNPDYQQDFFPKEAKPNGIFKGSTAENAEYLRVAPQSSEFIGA

MAP4K5 = MAP4K5 (Homo sapiens, UniProt Q9Y4K4)
MARK2 = MARK2 (Homo sapiens, UniProt Q7KZI7)
FES = FES (Homo sapiens, UniProt P07332)
MST4 = MST4 (Homo sapiens, UniProt Q9P289)
MST4, sequence (Q9P289 whole entry): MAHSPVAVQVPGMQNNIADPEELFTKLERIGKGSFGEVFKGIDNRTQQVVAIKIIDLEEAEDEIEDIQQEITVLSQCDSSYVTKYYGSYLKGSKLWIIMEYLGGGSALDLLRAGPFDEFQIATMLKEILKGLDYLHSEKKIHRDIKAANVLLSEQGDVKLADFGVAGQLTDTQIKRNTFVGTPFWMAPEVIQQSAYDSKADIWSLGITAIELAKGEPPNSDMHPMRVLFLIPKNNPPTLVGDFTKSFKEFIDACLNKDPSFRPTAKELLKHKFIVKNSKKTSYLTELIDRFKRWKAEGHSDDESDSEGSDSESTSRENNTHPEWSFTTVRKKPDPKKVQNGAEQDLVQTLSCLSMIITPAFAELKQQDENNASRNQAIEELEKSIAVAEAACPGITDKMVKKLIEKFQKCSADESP

GSK3B = GSK3B (Homo sapiens, UniProt P49841)
MARK3 = MARK3 (Homo sapiens, UniProt P27448)
FRK = FRK (Homo sapiens, UniProt P42685)
HUNK = HUNK (Homo sapiens, UniProt P57058)
BRSK2 = BRSK2 (Homo sapiens, UniProt Q8IWQ3)
JNK2 = JNK2 (Homo sapiens, UniProt P45984)
[1] = read-out: HYJ-2-002-1 (1uM) % control
[2] = read-out: CPT-1-70-1 (1uM) % control

MEK6, sequence (P52564 whole entry): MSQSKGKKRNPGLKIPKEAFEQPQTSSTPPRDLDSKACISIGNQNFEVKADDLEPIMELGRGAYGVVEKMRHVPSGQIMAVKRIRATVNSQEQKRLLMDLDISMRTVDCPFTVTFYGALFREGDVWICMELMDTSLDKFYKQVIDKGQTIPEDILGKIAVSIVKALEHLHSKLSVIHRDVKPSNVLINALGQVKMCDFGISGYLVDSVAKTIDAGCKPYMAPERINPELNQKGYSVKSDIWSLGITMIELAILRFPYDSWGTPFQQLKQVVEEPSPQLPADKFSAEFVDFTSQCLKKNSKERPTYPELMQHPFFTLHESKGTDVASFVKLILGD
FGFR3, sequence (P22607 whole entry): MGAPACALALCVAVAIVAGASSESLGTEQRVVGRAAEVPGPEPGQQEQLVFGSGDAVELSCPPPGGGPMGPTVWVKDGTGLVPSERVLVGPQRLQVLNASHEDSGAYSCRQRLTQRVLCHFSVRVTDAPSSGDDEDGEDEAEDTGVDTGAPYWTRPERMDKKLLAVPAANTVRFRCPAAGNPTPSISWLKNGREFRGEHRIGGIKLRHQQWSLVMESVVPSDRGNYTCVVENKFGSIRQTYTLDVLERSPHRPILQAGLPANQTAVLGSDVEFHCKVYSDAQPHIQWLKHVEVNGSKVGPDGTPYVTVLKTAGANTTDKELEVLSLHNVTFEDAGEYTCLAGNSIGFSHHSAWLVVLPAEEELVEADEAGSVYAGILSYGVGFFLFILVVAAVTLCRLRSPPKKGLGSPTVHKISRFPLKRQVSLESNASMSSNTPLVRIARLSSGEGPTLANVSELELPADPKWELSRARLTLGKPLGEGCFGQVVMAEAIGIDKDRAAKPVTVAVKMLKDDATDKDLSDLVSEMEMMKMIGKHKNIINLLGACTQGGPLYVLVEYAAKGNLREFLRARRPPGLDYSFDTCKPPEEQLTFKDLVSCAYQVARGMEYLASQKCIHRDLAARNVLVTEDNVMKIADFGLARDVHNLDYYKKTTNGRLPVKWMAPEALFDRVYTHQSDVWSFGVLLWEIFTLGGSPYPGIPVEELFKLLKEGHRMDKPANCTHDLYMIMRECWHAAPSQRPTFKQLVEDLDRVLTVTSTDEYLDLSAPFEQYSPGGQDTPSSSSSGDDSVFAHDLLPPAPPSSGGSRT

SMILES: CCN1CCN(Cc2ccc(NC(=O)c3ccc(C)c(CCc4cnc5[nH]ccc5c4OC)c3)cc2C(F)(F)F)CC1 [HYJ-2-002-1]
- remaining activity at 1 µM (BMPR2; [1]): 98%
- remaining activity at 1 µM (ASK1; [1]): 96%
- remaining activity at 1 µM (FGFR3; [1]): 28%
- remaining activity at 1 µM (AMPK-alpha1; [1]): 87%
- remaining activity at 1 µM (FYN; [1]): 2.2%
- remaining activity at 1 µM (MEK6; [1]): 91%
- remaining activity at 1 µM (MAPKAPK5; [1]): 100%
- remaining activity at 1 µM (FER; [1]): 56%
- remaining activity at 1 µM (FLT3(K663Q); [1]): 1.6%
- remaining activity at 1 µM (MYO3A; [1]): 59%
- remaining activity at 1 µM (MAP3K3; [1]): 1.6%
- remaining activity at 1 µM (MST3; [1]): 76%
- remaining activity at 1 µM (JNK1; [1]): 72%
- remaining activity at 1 µM (MYLK2; [1]): 0.85%
- remaining activity at 1 µM (FLT1; [1]): 10%
- remaining activity at 1 µM (ADCK4; [1]): 100%
- remaining activity at 1 µM (BRSK1; [1]): 97%
- remaining activity at 1 µM (MERTK; [1]): 30%
- remaining activity at 1 µM (CAMK1D; [1]): 94%
- remaining activity at 1 µM (EGFR; [1]): 5%
- remaining activity at 1 µM (MAP4K5; [1]): 16%
- remaining activity at 1 µM (MARK2; [1]): 64%
- remaining activity at 1 µM (FES; [1]): 13%
- remaining activity at 1 µM (MST4; [1]): 98%
- remaining activity at 1 µM (GSK3B; [1]): 88%
- remaining activity at 1 µM (MARK3; [1]): 100%
- remaining activity at 1 µM (FRK; [1]): 1.4%
- remaining activity at 1 µM (HUNK; [1]): 79%
- remaining activity at 1 µM (BRSK2; [1]): 91%
- remaining activity at 1 µM (JNK2; [1]): 1.8%

SMILES: CN1CCN(c2ccc(Nc3nc(Oc4ccc(NC(=O)CCl)cc4)c4cc[nH]c4n3)cc2)CC1 [CPT1-70-1]
- remaining activity at 1 µM (BMPR2; [2]): 100%
- remaining activity at 1 µM (ASK1; [2]): 100%
- remaining activity at 1 µM (FGFR3; [2]): 35%
- remaining activity at 1 µM (AMPK-alpha1; [2]): 32%
- remaining activity at 1 µM (FYN; [2]): 90%
- remaining activity at 1 µM (MEK6; [2]): 55%
- remaining activity at 1 µM (MAPKAPK5; [2]): 98%
- remaining activity at 1 µM (FER; [2]): 45%
- remaining activity at 1 µM (FLT3(K663Q); [2]): 2.4%
- remaining activity at 1 µM (MYO3A; [2]): 88%
- remaining activity at 1 µM (MAP3K3; [2]): 16%
- remaining activity at 1 µM (MST3; [2]): 93%
- remaining activity at 1 µM (JNK1; [2]): 2.4%
- remaining activity at 1 µM (MYLK2; [2]): 86%
- remaining activity at 1 µM (FLT1; [2]): 54%
- remaining activity at 1 µM (ADCK4; [2]): 91%
- remaining activity at 1 µM (BRSK1; [2]): 100%
- remaining activity at 1 µM (MERTK; [2]): 70%
- remaining activity at 1 µM (CAMK1D; [2]): 56%
- remaining activity at 1 µM (EGFR; [2]): 63%
- remaining activity at 1 µM (MAP4K5; [2]): 25%
- remaining activity at 1 µM (MARK2; [2]): 10%
- remaining activity at 1 µM (FES; [2]): 73%
- remaining activity at 1 µM (MST4; [2]): 49%
- remaining activity at 1 µM (GSK3B; [2]): 98%
- remaining activity at 1 µM (MARK3; [2]): 9.2%
- remaining activity at 1 µM (FRK; [2]): 100%
- remaining activity at 1 µM (HUNK; [2]): 78%
- remaining activity at 1 µM (BRSK2; [2]): 97%
- remaining activity at 1 µM (JNK2; [2]): 13%
